In patent publication US11549147B2, “Treatment of atopic dermatitis with tradipitant” (VANDA PHARMACEUTICALS INC., priority 2017, dated 2023):
Where “and” joins values, the source holds several entries; their conditions need not be identical. Equal entries are not always repeated.

How the values were obtained:
Assay type in all cases: in vivo, human
[1] = system: chronic pruritus in patients with atopic dermatitis; assay: Phase II proof of concept study VP-VLY-686-2101: tradipitant monotherapy vs placebo (Example 1); design: key to VAS Worst change / VAS Worst change, Diff / VAS Average change / VAS Average change, Diff: VAS points in mm; VRS change / VRS change, Diff / FBI / FBI, Diff / CGIC / CGIC, Diff: scale not given here; settings: for CGIC / DLQI change / FBI / SCORAD change / VAS Average change / VAS Worst change / VRS change: 100 mg qd evening; for CGIC, Diff / DLQI change, Diff / FBI, Diff / SCORAD change, Diff / VAS Average change, Diff / VAS Worst change, Diff / VRS change, Diff: Diff tradipitant vs placebo
Description: A phase II proof of concept clinical study (Study ID VP-VLY-686-2101, “Proof of Concept of VLY-686 in Subjects With Treatment-Resistant Pruritus Associated With Atopic Dermatitis”) is conducted, investigating the safety and efficacy of tradipitant as a monotherapy in the treatment of chronic pruritus in patients with atopic dermatitis.
In the study, patients with a Visual Analog Scale (VAS) score of greater than 70 mm during one of the two days preceding inclusion into the study are randomized to receive orally either 100 mg of tradipitant (n=34) or placebo (n=35) once a day in the evening. In the tradipitant arm of the study, tradipitant is orally administered to patients in capsules with standard excipients in an amount of 100 mg in the evening. Clinical assessments are made after 3 or 4 weeks of daily treatment, or at both 3 weeks and 4 weeks, each assessment being done in the morning of the day after last treatment or in the afternoon of the day after last treatment. The tradipitant is administered in an immediate release form comprising tradipitant and pharmaceutically acceptable excipients in a capsule. The tradipitant particle size is approximately: D10: <5 um, D50: <10 um, and D90: <25 um, wherein Dio means that 10% of the particles are of the indicated mean particle size, D50 means that 50% of the particles are of the indicated mean particle size, and D90 means that 90% of the particles are of the indicated mean particle size.
Baseline VAS scores are 76.1 and 77.2 for the tradipitant and placebo arms respectively. Efficacy is evaluated through a number of clinical research instruments. In addition, at the time of efficacy evaluation blood samples are collected for PK analysis in order to determine the plasma levels of tradipitant.

[2] = system: chronic pruritus associated with atopic dermatitis; assay: Phase II randomized double-blind placebo-controlled study NCT02651714 (Example 3); design: key to average itch VAS, difference / worst itch VAS, difference: VAS in mm, 0-100 mm scale; key to Average Itch VAS / worst Itch VAS: change in VAS, mm on 0-100 mm scale; CGI-C / SKINDEX-16 / Worst Itch NRS Night / worst itch NRS night, difference / CGIC, difference: scale not given here
Description: A phase II, multicenter, randomized, double-blind, placebo-controlled clinical study (“Tradipitant in Treatment-resistant Pruritus Associated with Atopic Dermatitis,” clinicaltrials.gov Study ID NCT02651714) is conducted to determine the efficacy of tradipitant relative to placebo in reducing chronic pruritus as measured by the VAS.
Inclusion criteria for the study include chronic (≥6 weeks) itch related to AD that is refractory to treatment by patient history, average itch score by VAS of ≥70 mm (out of 100 mm), verbal response score (VRS) of ≥3 on at least one of the past three days prior to randomization, and a SCORAD of <80.
Patients are randomized to receive either 85 mg of tradipitant or placebo (1:1) bid. The design for the randomized, placebo-controlled, double-blind study is depicted in FIG. 3. Individuals with chronic pruritus associated with AD are administered 85 mg of tradipitant bid or placebo for eight weeks. Average itch severity and worst itch severity are assessed by VAS, and VRS is assessed every two weeks. In addition, treatment is assessed biweekly using both the objective and subjective SCORing Atopic Dermatitis (SCORAD) Index (Severity Scoring of Atopic Dermatitis: The SCORAD Index, Consensus Report of the European Task Force on Atopic Dermatitis, Dermatology 1993; 186:23-31) and the Eczema Area and Severity Index (EASI) (Hanifin et al., The eczema area and severity index (EASI): assessment of reliability in atopic dermatitis, Experimental Dermatology 10(1):11-18 (2001)). The Clinical Global Impressions of Change (CGI-C) scale, the Patient Global Impression of Change (PGIC) scale with respect to both itch and AD, the Patient Benefit Index (PBI), and SKINDEX-16 scales are also used for assessments. Twice daily questionnaires are completed to report worst and average itch by numeric rating scale (NRS).
The objective SCORAD assessment includes parameters including extension, intensity, excoriations, erythema, oozing or crusting, the presence of edema or papules, lichenification, and skin dryness. The subjective SCORAD assessment includes patient assessments of itch and insomnia.

[3] = system: change of Worst Itch (VAS) in patients suffering from atopic dermatitis; assay: INADL variants modifying change of Worst Itch (VAS) in the treated cohort (Example 6, Table 12)
Description: In addition, within the treated cohort described herein in Example 4, Table 6, the top loci identified as modifying change of Worst Itch (VAS) are variants located within INADL gene, shown below in Table 12.

[4] = ITT population, 85 mg bid, week 8
[5] = categorical, ITT, 85 mg bid, week 8
[6] = difference tradipitant vs placebo, 85 mg bid, week 8

SMILES: O=C(c1ccccc1Cl)c1cccnc1-c1nnn(Cc2cc(C(F)(F)F)cc(C(F)(F)F)c2)c1-c1ccncc1 [Tradipitant]
- adverse event profile ([1]; 100 mg qd): mild and similar to placebo
- tolerability ([1]; 100 mg qd): well-tolerated
- endpoints corresponding to the underlying disease (SKINDEX, SCORAD objective, EASI and DLQI) vs placebo ([1]; 100 mg qd, 4-week study): do not show any significant difference from placebo
- CGIC ([1]; AM group, 3-4 weeks): 2.46
- DLQI change ([1]; AM group, 3-4 weeks): −2.52
- FBI ([1]; AM group, 3-4 weeks): 1.47
- SCORAD change ([1]; AM group, 3-4 weeks): −9.58
- VAS Average change ([1]; AM group, 3-4 weeks): −54
- VAS Worst change ([1]; AM group, 3-4 weeks): −47.9
- VRS change ([1]; AM group, 3-4 weeks): −1.46
- CGIC, Diff ([1]; AM group): −1.15
- DLQI change, Diff ([1]; AM group): 0.35
- FBI, Diff ([1]; AM group): 0.74
- SCORAD change, Diff ([1]; AM group): −5.23
- VAS Average change, Diff ([1]; AM group): −23.7
- VAS Worst change, Diff ([1]; AM group): −21.9
- VRS change, Diff ([1]; AM group): −0.79
- CGIC, Diff ([1]; PM group): 0.19
- DLQI change, Diff ([1]; PM group): −1.89
- FBI, Diff ([1]; PM group): −0.39
- SCORAD change, Diff ([1]; PM group): 0.88
- VAS Average change, Diff ([1]; PM group): 5.82
- VAS Worst change, Diff ([1]; PM group): 8.99
- VRS change, Diff ([1]; PM group): −0.13
- CGIC ([1]; PM group, 3-4 weeks): 2.47
- DLQI change ([1]; PM group, 3-4 weeks): −5.45
- FBI ([1]; PM group, 3-4 weeks): 1.01
- SCORAD change ([1]; PM group, 3-4 weeks): −6.29
- VAS Average change ([1]; PM group, 3-4 weeks): −28.8
- VAS Worst change ([1]; PM group, 3-4 weeks): −32.3
- VRS change ([1]; PM group, 3-4 weeks): −1.29
- improvement from baseline on 100 mm unit Visual Analog Scale (VAS) for itch ([1]; all patients, 100 mg once a day in the evening, 3-4 weeks): 40.5 mm
- time at which treatment effects in both itch and disease severity are evident ([2]; 85 mg bid): 2 Week
- clinical features of severity of atopic dermatitis, including excoriation, erythema, oozing and dryness ([2]; 85 mg bid vs placebo): significant improvements
- Average Itch VAS [2, 4]: −41.5
- CGI-C [2, 4]: 2.6
- PBI [2, 4]: 1.7 and 1.72
- PGI-C AD [2, 4]: 2.7 and 2.74
- PGI-C Itch [2, 4]: 2.6 and 2.56
- SKINDEX-16 [2, 4]: −34.8
- Worst Itch NRS Night [2, 4]: −3.4
- Worst itch NRS day [2, 4]: −3.3
- worst Itch VAS [2, 4]: −44.2
- Worst itch VAS ≥30 (responders) ([2]; categorical, ≥30 points improvement from baseline, ITT, 85 mg bid, week 8): 56.60%
- Worst itch VAS ≥40 (responders) ([2]; categorical, ≥40 points improvement from baseline, ITT, 85 mg bid, week 8): 52.6%
- EASI ≥75% (patients with 75% or greater improvement) [2, 5]: 21.1%
- SCORAD ≥50% (patients with 50% or greater improvement) [2, 5]: 44.0%
- CGIC, difference [2, 6]: −0.7
- EASI ≥75%, difference [2, 6]: 10.0%
- PBI, difference [2, 6]: 0.48
- PGIC AD, difference [2, 6]: −0.71
- PGIC itch, difference [2, 6]: −0.6
- SCORAD total, difference [2, 6]: −7.68
- SCORAD ≥50%, difference [2, 6]: 23.2%
- average itch VAS, difference [2, 6]: −5.7
- objective SCORAD, difference [2, 6]: −6.1
- subjective SCORAD, difference [2, 6]: −1.43
- worst itch NRS day, difference [2, 6]: −0.81
- worst itch NRS night, difference [2, 6]: −1.05
- worst itch VAS (≥40), difference [2, 6]: 17.9%
- worst itch VAS, difference [2, 6]: −13.6
- Genotype associated with worse Worst Itch (VAS) response ([3]; INADL SNP rs370530530, minor allele CT, major allele C, treated cohort): CTCT
- response as measured by change of Worst Itch (VAS), by genotype ([3]; INADL rs11207834 TT genotype): itch scale improvement
- response as measured by change of Worst Itch (VAS), by genotype ([3]; INADL rs11207834 minor allele, 85 mg bid): decreased response to treatment
